pIC50: −log10 of the molar value. Starred links: 1 amine or outer side, 2 acyl side, 3 side chain; linkers in the order of their positions; H or OH if unused. Positions of bridges follow the written chain, without caps; N, C: chain ends. Non-standard residues stand in square brackets, D forms with d. Residues, ends and D or L forms follow the SMILES beside them. Groups on a side chain read outwards from the residue. *: point of attachment. Phe(3-CH2NH2) = O=C([C@H](Cc1cccc(CN[*:3])c1)N[*:1])[*:2]; X29 = O=C([C@H](Cc1ccc(CC=[*:3])cc1)N[*:1])[*:2]; Ala(imidazol-2-yl) = N[C@@H](Cc1ncc[nH]1)C(=O)O; X32 = O=C(CCc1cccc2c1oc1c(CCN[*:1])cccc12)[*:2]; Trp(5-F) = N[C@@H](Cc1c[nH]c2ccc(F)cc12)C(=O)O; Phe(4-CH2NH2) = NCc1ccc(C[C@H](N)C(=O)O)cc1; X45 = O=C(CCC(=O)[*:1])NCc1ccc(CCN[*:2])cc1; Heptanedioyl = O=C(CCCCCC(=O)[*:2])[*:1]; Pro(cis-4-F) = O=C(O)[C@@H]1C[C@H](F)CN1; Hag = O=C([C@H](CCC=[*:3])N[*:1])[*:2]; γGlu = O=C(O)[C@H](CCC(=O)[*:2])N[*:1]; mXylylene = c1cc(C[*:1])cc(C[*:2])c1; AEF = NCCOc1ccc(C[C@H](N)C(=O)O)cc1; Glutaryl = O=C(CCCC(=O)[*:2])[*:1]; Palmitoyl = CCCCCCCCCCCCCCCC(=O)*; aThr = C[C@H](O)[C@H](N)C(=O)O; αMeP = C[C@@]1(C(=O)O)CCCN1; AEEEA = NCCOCCOCCOCC(=O)O; PEG2 = NCCOCCOCCC(=O)O; AEEA = NCCOCCOCC(=O)O; Piv = CC(C)(C)C(=O)*; Mpa = O=C(O)CCS
Columns and labels:
[1] = molecular target: T1, PCSK9 (Homo sapiens (Human), UniProt Q8NBP7); assay: PCSK9 Alexa FRET Standard assay (displacement of AlexaFluor647 tagged cyclic peptide Reagent A); assay type: binding; settings: PCSK9 Alexa FRET Standard assay, 0.5 nM PCSK9, 20 nM AF cyclic peptide Reagent A; read-out: IC50
Procedure, shortened: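 TR-FRET displacement: 0.5 nM biotinylated PCSK9 with 1.25 nM Strep-Eu and 20 nM AlexaFluor-tagged cyclic peptide (final) in 50 mM HEPES pH 7.4, 0.15 M NaCl, 5 mM CaCl2, 0.01% BSA, 0.01% P20, ≥2 h at room temperature. IC50 from sigmoidal fit, converted to Ki via peptide KD; falling Eu counts flagged false positives.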

[2] = molecular target: T1, PCSK9; assay: PCSK9 Alexa FRET Plus assay (displacement of AlexaFluor647 tagged cyclic peptide Reagent B); assay type: binding; settings: 0.5 nM PCSK9, 960 nM AF cyclic peptide Reagent B
Description: A solution containing 1 nM biotinylated PCSK9+2.5 nM Lance Streptavidin Europium (Strep-Eu) was made in 50 mM HEPES pH 7.4, 0.15 M NaCl, 5 mM CaCl2), 0.01% BSA, and 0.01% Surfactant P20. A separate solution containing 1920 nM of the AlexaFluor tagged cyclic peptide was made in the same buffer system. An Echo was used to transfer 0.075 ul of compound plus 0.675 ul of DMSO to each well of an assay plate followed by the addition of 15 ul of PCSK9+Stept-Eu and 15 ul of AF peptide. The final assay volume was 30.750 ul containing 0.5 nM PCSK9, 1.25 nM Strep-Eu, and 960 nM AF cyclic peptide. The reaction was incubated at room temperature for at least two hours prior to fluorescence measurements using an Envision Multilabel Reader. IC50 values were determined by fitting data to a sigmoidal dose-response curve using nonlinear regression. Ki was then calculated from the IC50 and the KD of AF cyclic peptide. Counts (B-counts) of the europium-labeled PCSK9 were followed to observe if compounds were adversely affecting PCSK9. A fall off of the B-counts likely indicated a false positive of inhibition. Data from this procedure was reported as “P=‘numerical value’ (nanomolar)”

[3] = Alexa FRET Plus, read-out: IC50

T1 sequence (Q8NBP7 153-692): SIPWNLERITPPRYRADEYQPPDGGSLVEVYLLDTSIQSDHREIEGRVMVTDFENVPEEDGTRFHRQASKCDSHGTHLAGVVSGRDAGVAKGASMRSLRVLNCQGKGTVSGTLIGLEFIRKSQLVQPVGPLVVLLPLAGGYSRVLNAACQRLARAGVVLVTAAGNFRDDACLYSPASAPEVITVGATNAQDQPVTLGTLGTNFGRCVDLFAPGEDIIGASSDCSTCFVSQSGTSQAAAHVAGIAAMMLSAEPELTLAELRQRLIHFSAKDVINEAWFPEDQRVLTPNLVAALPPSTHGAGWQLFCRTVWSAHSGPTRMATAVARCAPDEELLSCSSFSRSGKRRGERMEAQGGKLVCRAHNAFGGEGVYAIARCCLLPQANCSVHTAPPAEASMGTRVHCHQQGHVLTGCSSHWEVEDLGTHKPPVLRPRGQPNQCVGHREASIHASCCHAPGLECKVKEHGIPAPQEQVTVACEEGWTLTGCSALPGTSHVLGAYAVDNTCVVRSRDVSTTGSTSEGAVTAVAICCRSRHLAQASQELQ

Compound | pIC50 [1] | pIC50 [2, 3] | pIC50 ([2]; IC50, Alexa FRET Plus)
NC(=O)[C@@H]1Cc2ccc(cc2)CNC(=O)CCCCCC(=O)NCC(=O)N[C@@H](Cc2c[nH]c3ccc(F)cc23)C(=O)N[C@@H](Cc2c[nH]c3ccc(F)cc23)C(=O)N[C@@H](CC(=O)O)C(=O)N[C@@H](Cc2cnc[nH]2)C(=O)N[C@@H](Cc2ccc(O)cc2)C(=O)N1 [Compound 455] (G[Trp(5-F)][Trp(5-F)]DHY[Phe(4-CH2NH2)]-NH2; linker N-7 via Heptanedioyl) | 4.92 to 6.00 | 5.30 to 6.30 | –
COc1ccc(C[C@@H]2NC(=O)[C@H]([C@H](C)O)NC(=O)[C@@H]3C[C@H](F)CN3C(=O)[C@H](Cc3c[nH]c4ccc(F)cc34)NC(=O)[C@H](Cc3c[nH]c4ccc(F)cc34)NC(=O)[C@@H](C)NC(=O)[C@H](CCCCN)NC(=O)CCC(=O)NCc3ccc(cc3)CCNC(=O)[C@]3(C)CCCN3C2=O)cc1 [Compound 111] (K[dA][Trp(5-F)][Trp(5-F)][Pro(cis-4-F)][aThr]Y(Me)[αMeP]; linker N-C via X45) | 7.00 to 9.96 | – | 7.00 to 10.00
NC(=O)[C@@H]1Cc2cccc(c2)CNC(=O)CCCC(=O)NCC(=O)N[C@@H](Cc2c[nH]c3ccc(F)cc23)C(=O)N[C@@H](Cc2c[nH]c3ccc(F)cc23)C(=O)N[C@@H](CC(=O)O)C(=O)N[C@@H](Cc2ncc[nH]2)C(=O)N[C@@H](Cc2ccc(O)cc2)C(=O)N1 [Compound 458] (G[Trp(5-F)][Trp(5-F)]D[Ala(imidazol-2-yl)]Y[Phe(3-CH2NH2)]-NH2; linker N-7 via Glutaryl) | 4.30 to 4.68 | 5.30 to 6.30 | –
CCCc1cccc(C[C@@H]2NC(=O)[C@@H](C)NC(=O)[C@H](C)NC(=O)CCSCc3cccc(c3)CSCCNC(=O)[C@]3(C)CCCN3C(=O)[C@H](Cc3ccc(OC)cc3)NC[C@H]([C@@H](C)OC)NC(=O)[C@@H]3[C@@H](O)CCN3C(=O)[C@H](Cc3c[nH]c4ccc(F)cc34)NC2=O)c1 [Compound 459] | 4.30 to 4.68 | 5.30 to 6.30 | –

Continued, in another order:

pIC50 [1] | pIC50 [2, 3] | Compound | pIC50 ([2]; IC50, Alexa FRET Plus)
6.00 to 7.00 | 5.30 to 6.30 | COc1ccc(C[C@@H]2NC(=O)[C@H]([C@@H](C)O)NC(=O)[C@@H]3C[C@H](F)CN3C(=O)[C@H](Cc3c[nH]c4ccc(F)cc34)NC(=O)[C@H](Cc3c[nH]c4ccc(F)cc34)NC(=O)[C@@H](C)NC(=O)[C@H](CCCCN)NC(=O)[C@@H](NC(C)=O)CC/C=C/Cc3ccc(cc3)C[C@@H](C(N)=O)NC(=O)[C@]3(C)CCCN3C2=O)cc1 [Compound 138] (Ac-[Hag]K[dA][Trp(5-F)][Trp(5-F)][Pro(cis-4-F)]TY(Me)[αMeP][X29]-NH2; staple (E) 1-10) | –
4.92 to 6.00 | 5.30 to 6.30 | C[C@@]12CCCN1C(=O)[C@H](Cc1ccc(O)cc1)NC(=O)CCc1cccc3c1Oc1c(cccc1-3)CCNC(=O)[C@H](Cc1c[nH]c3ccc(F)cc13)NC(=O)[C@H](Cc1c[nH]c3ccc(F)cc13)NC(=O)CNC(=O)[C@H](CCCCN)NC(=O)CCSCc1cccc(c1)CSC[C@H](C(N)=O)NC2=O [Compound 120] ([Mpa]KG[Trp(5-F)][Trp(5-F)][X32]Y[αMeP][dC]-NH2; linker 1-9 via mXylylene) | –
4.30 to 4.68 | 5.30 to 6.30 | CCCCCCCCCCCCCCCC(=O)N[C@@H](CCC(=O)NCCOCCOCCC(=O)NCCOCCOCC(=O)NCCCC[C@H](NC(=O)COCCOCCOCCNC(=O)[C@@H]1CSCc2cccc(c2)CSCCC(=O)N[C@@H](CCCCN)C(=O)N[C@H](C)C(=O)N[C@@H](Cc2c[nH]c3ccc(F)cc23)C(=O)N[C@@H](Cc2c[nH]c3ccc(F)cc23)C(=O)N[C@@H](CC(=O)O)C(=O)N[C@@H](Cc2cnc[nH]2)C(=O)N[C@@H](Cc2ccc(O)cc2)C(=O)N2CCC[C@@]2(C)C(=O)N1)C(N)=O)C(=O)O [Compound 473] ([Mpa]K[dA][Trp(5-F)][Trp(5-F)]DHY[αMeP]C[AEEEA]K([AEEA-PEG2-γGlu-Palmitoyl])-NH2; linker 1-10 via mXylylene) | –
4.30 to 4.68 | 5.30 to 6.30 | COc1ccc(C[C@@H]2NC(=O)[C@H]([C@@H](C)O)NC(=O)[C@@H]3C[C@H](F)CN3C(=O)[C@H](Cc3c[nH]c4ccc(F)cc34)NC(=O)[C@H](Cc3c[nH]c4ccc(F)cc34)NC(=O)[C@@H](C)NC(=O)[C@H](CCCCN)NC(=O)[C@@H](NC(=O)C(C)(C)C)CC(=O)NCCOc3ccc(cc3)C[C@@H](C(N)=O)NC(=O)[C@]3(C)CCCN3C2=O)cc1 [Compound 119] (Piv-DK[dA][Trp(5-F)][Trp(5-F)][Pro(cis-4-F)]TY(Me)[αMeP][AEF]-NH2; lactam 1-10) | –
4.92 to 6.00 | 5.30 to 6.30 | C[C@@]12CCCN1C(=O)[C@H](Cc1ccc(O)cc1)NC(=O)N[C@H]1CCCc3ccc(cc31)C(=O)[C@H](Cc1c[nH]c3ccc(F)cc13)NC(=O)[C@H](Cc1c[nH]c3ccc(F)cc13)NC(=O)CNC(=O)[C@H](CCCCN)NC(=O)CCSCc1cccc(c1)CSC[C@@H](C(N)=O)NC2=O [Compound 139] | –

— patent US11530244B2, “Cyclic polypeptides for PCSK9 inhibition” (priority 2018, dated 2022)
